Experimental data from patent publication US11072596B2, “Poly(ADP-ribose) polymerase inhibitor, preparation method and use” (SELECTION BIOSCIENCE LLC, priority 2017, dated 2021).

Key:
[1] = Liver microsomal stability in vitro, dog; type: in vitro ADME; settings: for half-life at 1 μM: pH 7.4, dog liver microsomes 0.5 mg protein/mL, 1 μM test compound, 37° C., read-out: Dog T1/2
Protocol: (§1) Evaluation of in vitro liver microsomal stability of the compound of the present disclosure was tested by the following method:
(§2) Buffer: 100 mM potassium phosphate buffer, pH 7.4; […] MgCl2.
(§3) Liver microsomes: human liver microsomes, Corning Cat No. 452117; Rat liver microsomes, Xenotech Cat No. R1000; Mouse liver microsomes, Xenotech Cat No. M1000; Dog liver microsomes, Xenotech Cat No. D1000; Liver microsomes of cynomolgus monkey, Corning Cat No. 452413, the final concentration was 0.5 mg protein/mL.
(§4) 1. Intermediate solution: 5 μL of compound or control in stock solution (10 mM) was diluted with 495 μL of methanol (concentration: 100 μM, 99% MeOH).
(§5) 2. Operating solution: the intermediate solution was diluted […] with 450 μL 100 mM potassium phosphate buffer (concentration: 10 μM, 9.9% MeOH).
(§6) 1. 10 μL of compound or control solution per well was added to all plates (T0, T5, T10, T20, T30, T60, NCF60) except matrix blank.
(§7) 2. Microsome solution was distributed to 96-well plates according to platemap for standby, 680 μL per well, and the mixture of microsome solution and the compound was incubated at 37° C. for about 10 minutes.
(§8) 4. After preheating, NADPH regeneration system was distributed to 96-well plate, 90 μL per well, for standby according to plate map, which was added to each plate to start the reaction, 10 μL per well. The final concentration of each component in the incubation medium includes: 0.5 mg protein/mL microsome, 1 μM test compound, […], 0.99% methanol and 0.01% DMSO.
(§9) 6. The above-prepared stop solution (4° C. cooling) was added to stop the reaction, 300 μL per well.
(§10) 9. During centrifugation, eight new 96-well plates were loaded with 300 μL of HPLC water, and then 100 μL of supernatant was transferred for mixing, followed by LC/MS/MS detection.
(§11) 10. Data analysis: The peak area of the corresponding compound and internal standard was detected by LC-MS/MS, and the T1/2 of the compound was calculated by the following formula: […]

[2] = Liver microsomal stability in vitro, human; type: in vitro ADME; settings: for half-life at 1 μM: pH 7.4, human liver microsomes 0.5 mg protein/mL, 1 μM test compound, 37° C., read-out: Human T1/2
Protocol: as §1, §2, §3, §4, §5, §6, §7, §8, §9, §10, §11

CYP1A2 = molecular target: T1, CYP1A2 (Homo sapiens, UniProt P05177); experiment: Inhibition of human liver microsomal CYP450 enzymes, CYP1A2; type: in vitro ADME; settings: human liver microsomes, substrate Phenacetin 30 μM; Reference = α-naphthoflavone; read-out: IC50 1A2
T1 construct: from tissue; host or cells: human liver microsomes (HLM)
T1 sequence (P05177 1-516): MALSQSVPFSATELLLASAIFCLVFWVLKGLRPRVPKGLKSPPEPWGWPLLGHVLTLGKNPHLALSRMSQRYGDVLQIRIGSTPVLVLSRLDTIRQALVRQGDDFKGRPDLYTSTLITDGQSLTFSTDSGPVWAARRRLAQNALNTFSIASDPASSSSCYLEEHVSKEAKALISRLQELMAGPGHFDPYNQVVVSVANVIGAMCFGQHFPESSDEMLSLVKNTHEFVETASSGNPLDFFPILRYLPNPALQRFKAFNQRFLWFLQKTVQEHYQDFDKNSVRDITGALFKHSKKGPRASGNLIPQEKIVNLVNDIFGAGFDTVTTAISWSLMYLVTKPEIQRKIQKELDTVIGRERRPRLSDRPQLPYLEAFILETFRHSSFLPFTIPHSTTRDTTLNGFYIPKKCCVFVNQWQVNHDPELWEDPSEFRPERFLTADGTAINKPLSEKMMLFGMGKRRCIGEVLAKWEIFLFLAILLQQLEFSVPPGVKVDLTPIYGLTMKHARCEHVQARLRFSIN
Protocol: The inhibitory effects of the compound of the present disclosure on the CYP450 enzymes of six human subtypes were determined by the following experimental method:
Reference compounds of each subtype: CYP1A2: α-naphthoflavone; CYP2C9: sulfaphenazole; CYP2C19: omeprazole; CYP3A4: ketoconazole; CYP2D6: quinidine.
Substrate concentration: CYP1A2: Phenacetin at 30 μM; CYP2C9: Diclofenac at 10 μM; CYP2C19: S-Mephenytoin at 35 μM; CYP3A4: Midazolam at 5 μM and Testosterone at 80 μM; CYP2D6: Bufuralol at 10 μM.
6. 0.2 mg/mL of HLM was added to the test wells, 400 μL per well, and then the gradient diluted 400× test compound was added to the corresponding wells.
7. 0.2 mg/mL of HLM was added to the test wells, 200 μL per well, and then the gradient-diluted reference inhibitor was added to the corresponding wells. Steps 6 and 7 needed to be performed on ice.
8.1. 30 μL of test compound and reference compound were mixed in 0.2 mg/mL of HLM solution (see steps 6 and 7).
8.2. 15 μL of 4× substrate solution (see step 4) was added.
10. Preheated 8 mM of NADPH solution was added to the 96-well test plate (see step 3) to initiate the reaction, 15 μL per well.
11. The test plate was incubated at 37° C.: 3A4 for 5 minutes, each of 1A2, 2C9 and 2D6 for 10 minutes, and 2C19 for 45 minutes.
12. ACN containing internal reference was added to stop the reaction, 120 μL per well.
14. […]

[3] = molecular target: hERG potassium ion channel (Homo sapiens, UniProt Q12809); experiment: hERG potassium ion channel inhibitory activity (Qpatch, CHO-hERG cells); settings: for inhibition at 2.5 min, 40 µM: human
Protocol: CHO-hERG cells were cultured in a 175 cm^2 flask, and when the cell density was increased to 60-80%, the medium was removed and washed with 7 mL of PBS (Phosphate Buffered Saline phosphate buffer), and then digested with 3 mL of Detachin.
The single-cell high impedance sealing and the whole-cell mode formation process were all automatically completed by the Qpatch instrument. After obtaining the whole-cell recording mode, the cells were clamped at −80 mV (millivolt). Before giving a 5-second+40 mV depolarization stimulus, a 50 ms-50 mV pre-voltage was first given, repolarized to −50 mV for 5 seconds, and then returned to −80 mV. This voltage stimulation was applied every 15 seconds. After recording for 2 minutes, extracellular fluid was given for 5 minutes, and then the administration process was started. The compound concentration started from the lowest test concentration, and each test concentration was given for 2.5 minutes. […] At least 3 cells were tested at each concentration (n≥3).
The 20 mM compound mother solution was diluted with extracellular fluid, and 5 μL of 20 mM compound mother solution was added to 2495 μL of extracellular solution, diluted 500-fold to 40 μM, and then sequentially performed 3-fold continuous dilution in an extracellular fluid containing 0.2% DMSO to obtain the final concentration to be tested.
The experimental data were analyzed by XLFit software.

Chain of hERG potassium ion channel (Q12809 whole entry): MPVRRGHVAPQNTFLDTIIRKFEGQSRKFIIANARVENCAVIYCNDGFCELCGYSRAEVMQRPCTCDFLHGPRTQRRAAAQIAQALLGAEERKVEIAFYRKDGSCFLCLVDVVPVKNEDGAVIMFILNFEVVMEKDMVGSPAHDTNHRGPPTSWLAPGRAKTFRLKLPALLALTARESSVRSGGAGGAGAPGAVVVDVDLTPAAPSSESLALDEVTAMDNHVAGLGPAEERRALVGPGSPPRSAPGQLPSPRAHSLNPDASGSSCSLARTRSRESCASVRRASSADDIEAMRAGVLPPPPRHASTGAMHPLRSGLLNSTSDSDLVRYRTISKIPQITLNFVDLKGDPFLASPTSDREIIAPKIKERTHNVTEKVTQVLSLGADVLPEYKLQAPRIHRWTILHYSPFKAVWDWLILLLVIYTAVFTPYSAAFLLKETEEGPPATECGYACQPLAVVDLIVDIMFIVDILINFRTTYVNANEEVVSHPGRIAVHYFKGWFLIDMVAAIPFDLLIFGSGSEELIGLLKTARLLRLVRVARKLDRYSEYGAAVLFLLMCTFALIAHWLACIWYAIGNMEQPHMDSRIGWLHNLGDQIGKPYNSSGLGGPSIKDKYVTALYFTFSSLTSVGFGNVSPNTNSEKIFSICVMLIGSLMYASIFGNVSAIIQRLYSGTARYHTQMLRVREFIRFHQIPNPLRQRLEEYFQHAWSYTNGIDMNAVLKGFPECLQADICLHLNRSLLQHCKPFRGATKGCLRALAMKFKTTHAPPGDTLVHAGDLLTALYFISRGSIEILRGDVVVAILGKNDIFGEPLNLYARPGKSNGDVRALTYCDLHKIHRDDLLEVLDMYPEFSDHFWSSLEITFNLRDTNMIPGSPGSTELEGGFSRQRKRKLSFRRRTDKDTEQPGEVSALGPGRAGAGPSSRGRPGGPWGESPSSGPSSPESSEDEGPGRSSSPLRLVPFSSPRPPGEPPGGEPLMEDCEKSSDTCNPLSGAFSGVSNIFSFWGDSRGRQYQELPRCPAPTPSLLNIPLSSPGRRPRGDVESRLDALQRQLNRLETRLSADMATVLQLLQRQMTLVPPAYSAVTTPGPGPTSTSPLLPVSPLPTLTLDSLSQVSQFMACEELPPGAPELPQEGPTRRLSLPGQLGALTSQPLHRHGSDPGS

Compound | half-life at 1 μM [1] | half-life at 1 μM [2] | IC50 (CYP1A2) | IC50 [3] | inhibition at 2.5 min, 40 µM ([3]; CHO cells that express hERG (CHO-hERG)) | metabolic stability in dog liver microsomes, in words ([1]; dog liver microsomes) | metabolic stability in human liver microsomes, in words ([2]; human liver microsomes) | inhibition at 2.5 min, 40 µM [3]
NC(=O)c1cccc2cn(-c3ccc([C@@H]4CCCNC4)cc3)nc12 [Niraparib, reference compound] | 22.6 min | > 145 min | > 10 µM | 39.6 µM | 50.4% | – | – | –
NC(=O)c1cccc2cn(-c3ccc([C@]4(F)CCCNC4)cc3)nc12 (single isomer, unassigned) [Example 23, (R or S)-2-(4-(3-fluoropiperidin-3-yl)phenyl)-2H-indazole-7-carboxamide] | 20.3 min | > 145 min | > 10 µM | > 40 µM | – | excellent metabolic stability | excellent metabolic stability | 29.8%
